According to patent US20250275940A1, “PTEROSTILBENE AND SILIBININ FOR PREVENTING, AMELIORATING OR REDUCING RADIATION-INDUCED DISEASES” (UNIVERSITAT DE VALÈNCIA, priority 2021, published 2025):
Read-outs that look alike come from different tables or passages of the source.

How the values were obtained:
[1] = PT, SIL and NAD+ levels in circulating blood; conditions: treated and irradiated mice, FIG. 10A
Experimental: Briefly, samples were analyzed through HPLC (Ultimate 3000, Thermo Fisher Scientific) and MS/MS (Waters TQ detector triple quadrupole) systems on a Hypurity™ C18 column (50×4.6 mm) using an injection volume of 5 μL. The mobile phases consisted of water (A) and acetonitrile (B). […] MS/MS data acquisition was performed under negative electrospray ionization mode. […] The fragmentary voltage was 150 V, and the collision energy 15 eV. Tissue sample preparation was as described for determination of PTER levels (above).
Whole-blood samples (0.5 ml) were collected in sodium citrate tubes at 4° C. Then a whole-blood aliquot of 0.1 ml was transferred to a cryovial containing 0.9 ml of 0.5 M ice-cold perchloric acid to lyse all blood cells. Samples were centrifuged at 10,000 g×10 min (4° C.). Supernatants were stored at −80° C. until analyzed.

[2] = system: Swiss albino mice subjected to whole-body γ irradiation; test: Survival of mice subjected to whole-body γ irradiation (LD50/30); format: in vivo; conditions: 6 days after γ radiation (LD50/30), compounds administered orally, FIG. 2A
Excerpt: Swiss albino mice (male, 9-10 weeks old, 30-32 g) were obtained from Charles River Laboratories (Wilmington, MA). This strain is among the most common used in radiation studies (Williams 2010). Mice were fed with a nutritionally complete diet (standard diet, SD) before irradiation. This was A03 from Panlab (Barcelona, Spain), which has 3,200 kcal/kg and the following nutritional composition: crude protein, 23.5%; crude fat, 4.3%; crude fiber, 3.7%; and carbohydrates, 51.1%; vitamins and minerals were provided as in the NIH-7 open formula for rat and mouse. This diet meets the dietary allowances recommended for adult mice by the American Institute of Nutrition. The animals were fed ad libitum and kept in individual metabolic cages, in which body weight and food ingestion were monitored daily. The animal room was maintained at 22° C. on a 12 h light/12 h dark cycle. Ad libitum intake of drinking water was also allowed. Care of irradiated mice followed the recommendation of the Robert Wood Johnson Medical School (Piscataway, NJ) for mouse total body irradiation (policy 15), which includes: a) use of antibiotics in the drinking water (134 mg ampicillin/kg/day, 40 mg baytril/kg/day, and 220/42 mg sulfamethoxazole/trimethoprim/kg/day), b) making drinking water readily available, c) Napa nectar Systems Engineering Lab Group Inc., Napa, CA) provided on the bottom of the cage during the first 14 days and replaced daily, d) provision of softened food served in a small Petri dish on the cage floor, e) completely sterile environment (cage, food, and water) to avoid potential immunosuppression-associated infections. A free-standing wheel inside the cage was also included to facilitate the physical exercise of the animals. All experiments were started at 10.00 h to minimize possible circadian variations. Procedures involving animals were in compliance with international laws and policies (EEC Directive 86/609, OJ L 358. 1, Dec. 12, 1987; and NIH Guide for the Care and Use of Laboratory Animals, NIH Publ. No. 85-23, 1985). Mice were subjected to g-radiation (^137Cs) (total body irradiation, TBI) in a BIOBEAM 8000 (Gamma-Service Medical GmbH, Leipzig, Germany). Single fraction radiotherapy, at total doses ranging from approx. 5.0 to 10.0 Gy, was administered at a rate of approx. […]. The irradiation distance from the source was limited to 12 cm. Radiation dosimetry was controlled using alanine dosimeters from Bruker (Billerica, MA) with dosimetry variation of +/−0.09 Gy. […] NR (nicotinamide riboside, 3-aminocarbonyl-1-b-D-ribofuranosyl-pyridinium, Elysium Health, Inc., New York, NY) was dissolved in vaccination-grade water, and the pH of the solution neutralized (pH 7.0) before oral administration (185 mg/kg×day, Obrador 2020). FSL-1 (InvivoGen, San Diego, CA) was resuspended in sterile vaccination-grade water, and administered IP (0.25 mg/kg×day, the volume administered was of […] depending on the weight of the mouse, as recommended by Kurkjian 2017). Pharmaceutical grade amifostine (Ethyol) was obtained from Cumberland Pharmaceuticals (Nashville, TN) as 500 mg sterile lyophilized powder vial, and reconstituted with physiological saline prior to use.
First, the effects of γ radiation and mice survival were studied. […] Mice received whole-body γ radiation (one single dose; ^137Cs, 0.5-0.6 Gy/min; Biobeam 8000, GSM GmbH). One Gy=absorption of 1 J of energy/kg of matter.
Next, the thirty-days survival of mice treated with γ rays (LD50/30) and pterostilbene (PT) was analysed (FIG. 1B).

[3] = background statement; cited from earlier work
[4] = Plasma and extravascular levels of pterostilbene after oral administration; format: in vivo; conditions: mice, 200 mg Pter/kg b.w. oral
Experimental: Plasma and extravascular levels of pterostilbene after its oral administration to mice were studied. Mice were treated with 200 mg Pter/kg b.w. A group of 4-5 animals was sacrificed per each time point. Pter was dissolved in 2-hydroxypropyl-b-cyclodextrin, then suspended in 0.3% carboxymethylcellulose. Nondetectable=n.d. * P<0.1 comparing data obtained at 10-1440 min versus those found at 5 min.

[5] = system: Swiss albino mice subjected to whole-body γ irradiation; test: Survival of mice subjected to whole-body γ irradiation (LD50/30); format: in vivo; conditions: dose of 100 mg/kg, orally once per day, 5 days before and 2 days after γ irradiation (7.2 Gy), FIG. 1B
[6] = Swiss albino, mouse, brain, 200 mg/kg b.w., read-out: Pter in Brain
[7] = Swiss albino, mouse, kidney, 200 mg/kg b.w., read-out: Pter in Kidney
[8] = Swiss albino, mouse, liver, 200 mg/kg b.w., read-out: Pter in Liver
[9] = Swiss albino, mouse, lung, 200 mg/kg b.w., read-out: Pter in Lung
[10] = Swiss albino, mouse, plasma, 200 mg/kg b.w., read-out: Pter in Plasma

In the case of `COc1cc(/C=C/c2ccc(O)cc2)cc(OC)c1` [PT, 3,5-dimethoxy-4′-hydroxystilbene], the “PT levels in circulating blood, 30 min vs 120 min” value [1] is listed as “higher 30 min after”, the survival [2] is listed as “around 100%” and the “potency as antifungal agent relative to Resveratrol” value [3] is listed as 60-100 times. The concentration at 5 min [4, 6] was 2 ± 1 µM, the concentration at 10 min [4, 6] was 6 ± 2 µM and the concentration at 30 min [4, 6] was 10 ± 3 µM. The concentration at 60 min [4, 6] was 24 ± 7 µM, the concentration at 120 min [4, 6] was 14 ± 4 µM and the concentration at 240 min [4, 6] was 8 ± 3 µM. It also gave a concentration at 480 min [4, 6] of 3 ± 1 µM, a concentration at 5 min [4, 7] of 1 ± 0.5 µM and a concentration at 10 min [4, 7] of 4 ± 2 µM. It also gave a concentration at 30 min [4, 7] of 6 ± 3 µM, a concentration at 60 min [4, 7] of 10 ± 4 µM and a concentration at 120 min [4, 7] of 8 ± 2 µM. For the same compound, the concentration at 240 min [4, 7] was 2 ± 0.5 µM, the concentration at 5 min [4, 8] was 3 ± 1 µM and the concentration at 10 min [4, 8] was 8 ± 3 µM. For the same compound, the concentration at 30 min [4, 8] was 11 ± 3 µM, the concentration at 60 min [4, 8] was 17 ± 5 µM and the concentration at 120 min [4, 8] was 12 ± 4 µM. The concentration at 240 min [4, 8] was 7 ± 2 µM, the concentration at 480 min [4, 8] was 1 ± 0.5 µM and the concentration at 5 min [4, 9] was 7 ± 2 µM. The concentration at 10 min [4, 9] was 15 ± 6 µM, the concentration at 30 min [4, 9] was 23 ± 5 µM and the concentration at 60 min [4, 9] was 35 ± 8 µM. For the same compound, the concentration at 120 min [4, 9] was 21 ± 4 µM, the concentration at 240 min [4, 9] was 12 ± 3 µM and the concentration at 480 min [4, 9] was 2 ± 1 µM. The concentration at 5 min [4, 10] was 5 ± 2 µM, the concentration at 10 min [4, 10] was 18 ± 4 µM and the concentration at 30 min [4, 10] was 55 ± 9 µM. For the same compound, the concentration at 60 min [4, 10] was 98 ± 17 µM, the concentration at 120 min [4, 10] was 46 ± 12 µM and the concentration at 240 min [4, 10] was 21 ± 6 µM. For the same compound, the concentration at 480 min [4, 10] was 14 ± 5 µM, the concentration at 720 min ([4]; Swiss albino, mouse, plasma, 200 mg/kg b.w., 720 min) was 1 ± 0.5 µM and the “time after administration at which Pterostilbene levels peak” value ([4]; all tissues studied) was 60 min. For the same compound, the “effect on improving survival (60 days) among doses” value [5] was “best effect on improving survival”.
